Data reported in patent EP1769804B1, “hPTH(1-34) for use in preventing or reducing the incidence or severity of vertebral and / or non vertebral fracture in a male human” (priority 1998, dated 2012).

What was measured:
[1] = tested on: ovariectomized cynomolgus primates; assay: Bone mass by DXA and pQCT in the primate study; format: in vivo, Macaca fascicularis
Text: All animals were euthanized after 18 months.

[2] = tested on: rodents; assay: In vivo mechanistic studies in rodents; conditions: after the first dose
[3] = cynomolgus monkey, in vivo
Experimental: Serum and urinary samples were taken 24 hours after vehicle or rhPTH(1-34) injection at 3-month intervals. A sparse sampling design of 5 monkeys in each rhPTH(1-34)-treated group was used for pharmacokinetics, with sampling (spanning 0 to 240 minutes each time) at baseline, 7, 11, and 17 months.

[4] = tested on: L-5 vertebra from cynomolgus monkeys; assay: QCT and 3D finite element modeling of L-5 vertebra; format: in vivo; conditions: for low BMD, percentage of L5 vertebral volume: 0-300 mg/cc; for low BMD, percentage of L5 vertebral volume / medium BMD, percentage of L5 vertebral volume / high BMD, percentage of L5 vertebral volume / cortical BMD, percentage of L5 vertebral volume: mean±SEM; for medium BMD, percentage of L5 vertebral volume: 300-700 mg/cc; for high BMD, percentage of L5 vertebral volume: 700-1000 mg/cc; for cortical BMD, percentage of L5 vertebral volume: >1000 mg/cc; for vertebral effective strain: finite element model, distributed load of 100 N
Experimental: These studies determined 3D finite element modeling data on vertebra from monkeys of the study dosed with PTH for 18 months. Excised L-5 vertebra in 50% ethanol/saline from the ovariectomized (n=7) and PTH (n=7) groups were serially scanned in 500 µm steps by quantitative computed tomography (QCT, Norland, Ft. Atkinson, WI), using 70x70 µm pixels. Each of the 500 µm cross-sections was analyzed for volumetric bone mineral density (BMD, mg/cc), bone mineral content (BMC, mg), cross-sectional area (X-Area), cancellous bone volume (BV/TV), trabecular thickness (Tb.Th), and connectivity (node density, strut analysis). Pixels in each serial scan were averaged to create 490x490x500 µm voxels. The serial scans were then stacked and a triangular surface mesh generated for each bone using the "marching cubes" algorithm (see e.g. Lorensen and Cline 1987 "Marching cubes, a high resolution 3D surface construction algorithm." Computer Graphics 21, 163-169). A smoothed version of each surface mesh was then used to generate a tetrahedral mesh for 3D finite-element modeling.
Young's modulus for each tetrahedral element was derived from the original voxel densities and material properties from a beam of cortical bone milled from the femoral diaphysis of the monkeys. Each tetrahedral mesh was rotated so that the bottom surface of each vertebra was aligned with a plane. Linear elastic stress analysis was then performed for each L-5 model in which a distributed load of 100 N was applied to the top surface of the centrum, perpendicular to the bottom plane while the bottom surface was fixed in the direction of loading. The resulting axial strain contours were evaluated, as were the BMD distributions, and compared between PTH and ovariectomized. At this resolution, the density of each voxel is dependent on the extent to which each voxel is filled with bone as opposed to soft tissue.

[5] = tested on: ovariectomized cynomolgus monkeys; conditions: cynomolgus monkey, in vivo
Experimental: The live phase of the study used feral, adult (closed growth plates) cynomolgus primates (Macaca fascicularis), weighing 2.77±0.03 kg (mean ± standard error of the mean [SEM]). Monkeys were held in quarantine for 3 months, then started on a diet containing 0.3% calcium, 0.3% phosphate, and 250 IU vitamin D3/100 g diet, and given fluoridated water (1 ppm fluoride) ad libitum. The calcium content corresponded to 1734 mg calcium/2000 calories. After 1 month on the diet, animals were sorted into groups of 21 or 22, sham operated or ovariectomized. Once daily subcutaneous injections of vehicle (sham and ovariectomized controls) or rhPTH(1-34), at 1 µg/kg (PTH1) or 5 µg/kg (PTH5), were started 24 hours after ovariectomy. Animals were treated for either 18 months (PTH1 and PTHS), or for 12 months followed by withdrawal of treatment (PTH1-W and PTH5-W).

[6] = tested on: post-menopausal women; assay: Clinical trial: BMC, BMD and bone area by dual energy absorptiometry (DEXA); format: in vivo, Humans
Experimental: The effect of PTH on bone mineral content (BMC), bone mineral density (BMD), and bone area were determined by dual energy absorptiometry (DEXA), and the results are reported in Tables 12-14. PTH administration caused apparent increases in BMC at the patient's lumbar spine, femur and hip, wrist, and throughout the patient's whole body (Table 12). Treatment with PTH caused significant increases in the patient's BMD at the lumbar spine, femur and hip (Table 13). The increases at the lumbar spine, femur and hip were statistically significant with p<0.001 (Table 13). […] The increases were statistically significant for the lumbar spine and hip neck (Table 14).

[7] = tested on: post-menopausal women; assay: Clinical trial: number and severity of vertebral fractures (spine x-ray); format: in vivo, Humans
[8] = PTH-W, after withdrawal of PTH for 6 months
[9] = PTH for 18 months compared to ovariectomized
[10] = 20 µg/day PTH compared to placebo
[11] = 40 µg/day PTH compared to placebo
[12] = all PTH treated patients compared with placebo

teriparatide [rhPTH(1-34)]
increase of whole body bone mineral content (BMC) compared to baseline ([1]; 18 months, DXA): up to 6% | overall skeletal bone mass, expressed as total body BMC ([1]; Fig. 1): increased significantly | proximal tibia BMC and BMD ([1]; compared to ovariectomized controls): increased BMC and BMD | BMD of the midshaft or distal radius ([1]; pQCT): did not alter | increase of cross-sectional area of the midshaft ([1]; radius midshaft, PTH5 group): 7% | time to detectable increase in bone forming surfaces [2]: ≤ 24 h | pharmacokinetic measures [3]: did not change with time | low BMD, percentage of L5 vertebral volume ([4]; PTH for 18 months): 17.7±1.6 % | low BMD, percentage of L5 vertebral volume [4, 8]: 22.4±1.3 % | medium BMD, percentage of L5 vertebral volume ([4]; PTH for 18 months): 58.9±1.9 % | medium BMD, percentage of L5 vertebral volume [4, 8]: 49.7±1.2% | high BMD, percentage of L5 vertebral volume ([4]; PTH for 18 months): 22.8±2.7% | high BMD, percentage of L5 vertebral volume [4, 8]: 27.0±1.6 % | cortical BMD, percentage of L5 vertebral volume ([4]; PTH for 18 months): 0.6±0.3% | cortical BMD, percentage of L5 vertebral volume [4, 8]: 0.8±0.2% | BMC at the midlevel of the L5 vertebra ([4]; PTH for 18 months): 47.4 ± 1.5 mg | greater Tb.N, centrum [4, 9]: 37% | greater node density (node/tissue volume) [4, 9]: 140% | greater node-to-node struts [4, 9]: 286% | increase in BMC, middle 500 µm slice of L-5 [4, 9]: 27% | increase in BMD, middle 500 µm slice of L-5 [4, 9]: 21% | increase in BV/TV, centrum [4, 9]: 73% | increase in Tb.Th, centrum [4, 9]: 30% | reduction of average mechanical strain in the vertebra ([4]; PTH treatment, vs OVX): 36% | BMC at the midlevel of the L5 vertebra [4, 8]: 44.2 ± 1.2 mg | average mechanical strain in the vertebra below OVX ([4]; after withdrawal of PTH): 23% | vertebral effective strain ([4]; PTH for 18 months): 447±36 ustrain | vertebral effective strain [4, 8]: 539±34 ustrain | sustained hypercalcemia or kidney pathology [5]: no evidence of sustained hypercalcemia or kidney pathology | bone area, endpoint % change (SD) from baseline, Femur/Hip Intertrochanter ([6]; PTH-20): 1.01 (4.99) % | bone area, endpoint % change (SD) from baseline, Femur/Hip Neck ([6]; PTH-20): 0.27 (4.91) % | bone area, endpoint % change (SD) from baseline, Femur/Hip Total ([6]; PTH-20): 0.84 (3.16) % | bone area, endpoint % change (SD) from baseline, Femur/Hip Trochanter ([6]; PTH-20): 1.99 (12.16) % | bone area, endpoint % change (SD) from baseline, Femur/Hip Ward's triangle ([6]; PTH-20): 1.13 (7.34) % | bone area, endpoint % change (SD) from baseline, Lumbar spine ([6]; PTH-20): 2.52 (3.52) % | bone area, endpoint % change (SD) from baseline, Wrist 1/3 radius ([6]; PTH-20): 0.52 (3.40) % | bone area, endpoint % change (SD) from baseline, Wrist Ultradistal ([6]; PTH-20): -0.25 (6.00) % | bone mineral content, endpoint % change (SD) from baseline, Femur/Hip Intertrochanter ([6]; PTH-20): 3.59 (7.32) % | bone mineral content, endpoint % change (SD) from baseline, Femur/Hip Neck ([6]; PTH-20): 2.99 (7.26) % | bone mineral content, endpoint % change (SD) from baseline, Femur/Hip Total ([6]; PTH-20): 3.50 (6.26) % | bone mineral content, endpoint % change (SD) from baseline, Femur/Hip Trochanter ([6]; PTH-20): 5.68 (15.58) % | bone mineral content, endpoint % change (SD) from baseline, Femur/Hip Ward's triangle ([6]; PTH-20): 5.36 (14.78) % | bone mineral content, endpoint % change (SD) from baseline, Lumbar spine ([6]; PTH-20): 11.85 (8.83) % | bone mineral content, endpoint % change (SD) from baseline, Whole body ([6]; PTH-20): 1.30 (4.48) % | bone mineral content, endpoint % change (SD) from baseline, Wrist 1/3 radius ([6]; PTH-20): -1.37 (4.51) % | bone mineral content, endpoint % change (SD) from baseline, Wrist Ultradistal ([6]; PTH-20): -0.25 (6.53) % | bone mineral density, endpoint % change (SD) from baseline, Femur/Hip Intertrochanter ([6]; PTH-20): 2.62 (5.52) % | bone mineral density, endpoint % change (SD) from baseline, Femur/Hip Neck ([6]; PTH-20): 2.79 (5.72) % | bone mineral density, endpoint % change (SD) from baseline, Femur/Hip Total ([6]; PTH-20): 2.58 (4.88) % | bone mineral density, endpoint % change (SD) from baseline, Femur/Hip Trochanter ([6]; PTH-20): 3.50 (6.81) % | bone mineral density, endpoint % change (SD) from baseline, Femur/Hip Ward's triangle ([6]; PTH-20): 4.19 (11.93) % | bone mineral density, endpoint % change (SD) from baseline, Lumbar spine ([6]; PTH-20): 9.70 (7.41) % | bone mineral density, endpoint % change (SD) from baseline, Wrist 1/3 radius ([6]; PTH-20): -1.94 (4.07) % | bone mineral density, endpoint % change (SD) from baseline, Wrist Ultradistal ([6]; PTH-20): -0.05 (7.14) % | bone area, endpoint % change (SD) from baseline, Femur/Hip Intertrochanter ([6]; PTH-40): 1.01 (4.89) % | bone area, endpoint % change (SD) from baseline, Femur/Hip Neck ([6]; PTH-40): 0.81 (5.56) % | bone area, endpoint % change (SD) from baseline, Femur/Hip Total ([6]; PTH-40): 1.05 (2.98) % | bone area, endpoint % change (SD) from baseline, Femur/Hip Trochanter ([6]; PTH-40): 1.92 (11.30) % | bone area, endpoint % change (SD) from baseline, Femur/Hip Ward's triangle ([6]; PTH-40): 0.99 (8.06) % | bone area, endpoint % change (SD) from baseline, Lumbar spine ([6]; PTH-40): 3.34 (3.72) % | bone area, endpoint % change (SD) from baseline, Wrist 1/3 radius ([6]; PTH-40): 0.01 (4.42) % | bone area, endpoint % change (SD) from baseline, Wrist Ultradistal ([6]; PTH-40): -0.39 (4.80) % | bone mineral content, endpoint % change (SD) from baseline, Femur/Hip Intertrochanter ([6]; PTH-40): 4.99 (7.79) % | bone mineral content, endpoint % change (SD) from baseline, Femur/Hip Neck ([6]; PTH-40): 5.80 (8.71) % | bone mineral content, endpoint % change (SD) from baseline, Femur/Hip Total ([6]; PTH-40): 4.78 (6.70) % | bone mineral content, endpoint % change (SD) from baseline, Femur/Hip Trochanter ([6]; PTH-40): 6.53 (15.33) % | bone mineral content, endpoint % change (SD) from baseline, Femur/Hip Ward's triangle ([6]; PTH-40): 8.86 (17.02) % | bone mineral content, endpoint % change (SD) from baseline, Lumbar spine ([6]; PTH-40): 16.62 (11.1) % | bone mineral content, endpoint % change (SD) from baseline, Whole body ([6]; PTH-40): 2.28 (5.44) % | bone mineral content, endpoint % change (SD) from baseline, Wrist 1/3 radius ([6]; PTH-40): -3.04 (6.09) % | bone mineral content, endpoint % change (SD) from baseline, Wrist Ultradistal ([6]; PTH-40): -1.88 (7.97) % | bone mineral density, endpoint % change (SD) from baseline, Femur/Hip Intertrochanter ([6]; PTH-40): 3.98 (5.96) % | bone mineral density, endpoint % change (SD) from baseline, Femur/Hip Neck ([6]; PTH-40): 5.06 (6.73) % | bone mineral density, endpoint % change (SD) from baseline, Femur/Hip Total ([6]; PTH-40): 3.60 (5.42) % | bone mineral density, endpoint % change (SD) from baseline, Femur/Hip Trochanter ([6]; PTH-40): 4.40 (7.45) % | bone mineral density, endpoint % change (SD) from baseline, Femur/Hip Ward's triangle ([6]; PTH-40): 7.85 (13.24) % | bone mineral density, endpoint % change (SD) from baseline, Lumbar spine ([6]; PTH-40): 13.7 (9.69) % | bone mineral density, endpoint % change (SD) from baseline, Wrist 1/3 radius ([6]; PTH-40): -3.17 (4.62) % | bone mineral density, endpoint % change (SD) from baseline, Wrist Ultradistal ([6]; PTH-40): -1.76 (7.20) % | Number of patients with 2 or more new vertebral fractures ([7]; 20 µg/day PTH (n=444)): 5 | Number of patients with new moderate to severe fractures ([7]; 20 µg/day PTH (n=444)): 4 | Number of patients with new vertebral fractures ([7]; 20 µg/day PTH (n=444)): 22 | percentage of patients with 2 or more new vertebral fractures ([7]; 20 µg/day PTH (n=444)): (1.1%) | percentage of patients with new moderate to severe fractures ([7]; 20 µg/day PTH (n=444)): (0.9%) | percentage of patients with new vertebral fractures ([7]; 20 µg/day PTH (n=444)): (5.0%) | reduction in number of patients with moderate to severe vertebral fractures [7, 10]: 90% | reduction in number of patients with multiple vertebral fractures [7, 10]: 77% | reduction in number of patients with vertebral fractures [7, 10]: 65% | Number of patients with 2 or more new vertebral fractures ([7]; 40 µg/day PTH (n=434)): 3 | Number of patients with new moderate to severe fractures ([7]; 40 µg/day PTH (n=434)): 9 | Number of patients with new vertebral fractures ([7]; 40 µg/day PTH (n=434)): 19 | percentage of patients with 2 or more new vertebral fractures ([7]; 40 µg/day PTH (n=434)): (0.7%) | percentage of patients with new moderate to severe fractures ([7]; 40 µg/day PTH (n=434)): (2.1%) | percentage of patients with new vertebral fractures ([7]; 40 µg/day PTH (n=434)): (4.4%) | reduction in number of patients with moderate to severe vertebral fractures [7, 11]: 78% | reduction in number of patients with multiple vertebral fractures [7, 11]: 86% | reduction in number of patients with vertebral fractures [7, 11]: 69% | reduction in number of patients with moderate to severe vertebral fractures [7, 12]: 84% | reduction in number of patients with multiple vertebral fractures [7, 12]: 81% | reduction in number of patients with vertebral fractures [7, 12]: 67% | reduction in the number of patients with moderate or severe fractures ([7]; summary): 78% | reduction of the number of patients with prior vertebral fractures who suffered new vertebral fractures ([7]; summary): more than 66% | reduction of the number of patients with prior vertebral fractures who suffered new, multiple vertebral fractures ([7]; summary): more than 78%
